Measured values published in US20240415819A1, “MACROCYCLIC COMPOUNDS AS PROTEASOME SUBUNIT BETA TYPE-5 INHIBITORS” (Lead Discovery Center GmbH, priority 2021, published 2024).

Tests used:
[1] = biological target: T1, β5 subunit of the human immunoproteasome (IPS) (Homo sapiens, UniProt P28062); test: β5 inhibition assay, human immunoproteasome (Suc-LLVY-AMC); assay type: biochemical; conditions: IC50 class, Suc-LLVY-AMC substrate
T1 construct: purchased Boston Biochem E-370
Protocol: The enzymatic activity of the β5 subunit of the human constitutive proteasome (CPS) is analyzed. In another assay, which differs from the assay of the human constitutive proteasome only in using the human immunoproteasome (IPS) the enzymatic activity of the β5 subunit of the human immunoproteasome (IPS) is analyzed. Incubation of the enzyme with its fluorogenic substrate Suc-LLVY-AMC leads to liberation of the fluorescent dye AMC which can be measured with a suitable plate reader. • 100 mM HEPES pH7.5 • 50 mM NaCl • 0.02% SDS • 1 mM DTT (add fresh) • Victor X5 (Perkin Elmer) • Label: Umbeliferone (0.1s) • Excitation wavelength: 355 nm • Emission wavelength: 460 nm • 4 μl human cPS or IPS enzyme in assay buffer (final assay concentration 1 nM) or 4 μl assay buffer for negative controls • Compound addition via acoustic dispenser (Echo 520, Labcyte) • Mix and incubate @ RT for 10 min • 4 μl Suc-LLVY-AMC substrate (final assay concentration 22.6 μM) • Mix and incubate @ RT for 4 h (dark) • Stop reaction with 4 μl Bortezomib (final assay concentration 1 μM) • 15 min @ RT • Measure (Excitation 355 nm; Emission 460 nm)

[2] = system: A549 (human lung carcinoma cell line); test: Glo assay of A549 cells (Table 3; ProteasomeGlo plating scheme); assay type: cell-based; conditions: Homo sapiens; A549 cells; read-out: PGLo A549
Description: Inhibition is indicated as IC50 [nM] (“-”=not measured). […] • Chymotrypsin-Like Cell-Based Proteasome-GloTM Assay (Promega; […]) • Cell culture 384-well plates (Greiner BioOne; 781080) • Dispensing cassette, MultiDrop Standard tube dispensing cassette (Thermo Scientific; 24072670) • DPBS (Pan BioTech; P04-36500) • Cell culture 384-well plates (Greiner BioOne; 781080) • CPD source plate: diamond-shape plate (Labcyte; LP-0200) • Intermediate plate (Labcyte; P-05525) [table] • a. Remove the plates with cells from the incubator. • b. Take all the plates including the compound plate, intermediate plate and Staurosporine plate to the ECHO. • c. Click on “Open” in the ECHO software and select the protocol “QLI5_25ul_30 uM-Grenier”. • d. Follow the on-screen prompts and instructions once you click “Start” to insert the compound plate, intermediate plate and destination plates. • e. Change the final number of destination plates on the program. • f. Follow the on-screen prompts and instructions once you click “Start” to load the Staurosporine and destination plates. • g. Once all the compounds, DMSO and Staurosporine have been transferred, place the destination plates in a wet tissue box. • h. Place the destination plates back into the incubator and incubate at 37° C., 5% CO2 for 105 minutes. • i. Re-seal all the compound+Stauro diamond and intermediate plates and store in the dark. Chymotrypsin like ProteasomeGlo Assay • 1. Thaw the components of the ProteasomeGlo assay at room temperature including the ProteasomeGlo Buffer, the lyophilized Luciferin Detection Reagent and the Suc-LLVY-Glo Substrate. • 2. Reconstitute the Luciferin Detection Reagent in the amber coloured bottle by adding 50 ml of the ProteasomeGlo Buffer. • 3. Vortex the Suc-LLVY-Glo Substrate briefly to reconstitute the Substrate well. • 4. Spin down the Substrate and add 250 μl of the Substrate to the reconstituted Luciferin Detection Reagent from step 2. • 5. Briefly vortex the amber bottle with the mix to prepare a homogenous solution. • 6. Place the mix prepared in step 5 to sit at room temperature for 60 minutes. • 7. After 60 minutes, pipette 25 μl of the mix from step 5 into all wells with the cells. • 8. Shake the plates for 2-5 minutes to ensure the complete mixing of the ProteasomeGlo reagent with the cells. • 9. Leave the plates in the dark for 10-15 minutes. • 10. Measure the luminescence read-out using the Viktor and the protocol “Luminescence_384Well_0.2 sec”. (Note: The Protoeasome-GloTM Reagent (combined Proteasome-GloTM Substrate, Proteasome-GloTM Buffer and Luciferin Detection Reagent) can be stored at 4° C. or -20° C. for 1 month with minimal loss of activity.)

[3] = biological target: T2, β5 subunit of the human constitutive proteasome (CPS) (Homo sapiens, UniProt P28074); test: β5 inhibition assay, human constitutive proteasome (Suc-LLVY-AMC); assay type: biochemical; conditions: IC50 class, Suc-LLVY-AMC substrate
T2 construct: purchased Boston Biochem E-360
Protocol: The enzymatic activity of the β5 subunit of the human constitutive proteasome (CPS) is analyzed. In another assay, which differs from the assay of the human constitutive proteasome only in using the human immunoproteasome (IPS) the enzymatic activity of the β5 subunit of the human immunoproteasome (IPS) is analyzed. […] Inhibition is indicated as IC50 [nM] (“-”=not measured).

[4] = system: HT-29 cells; test: CellTiter-Glo luminescent cell viability assay with HT-29 cells (72h incubation); assay type: cell-based, human; conditions: Homo sapiens, HT-29, HT29 cells, read-out: CTG HT29
Protocol: Cell Titer Glo Viability Assay with HT-29 Cells (72h Incubation) The CellTiter-Glo Luminescent Cell Viability Assay (Promega) is a homogeneous method of determining the number of viable cells in culture. It is based on quantification of ATP, indicating the presence of metabolically active cells. On day 1 400 HT-29 cells per well are seeded in white 384well plates (Greiner, #781080) in 25 μl cell culture medium (DMEM (PAN-Biotech #P04-03590)+10% FCS+glutamine). After incubation for 24 h at 37° C./5% CO2 compounds or DMSO are added at different concentrations by Echo Liquid Handling Technology. Cells are further incubated in humidified chambers for 72 h at 37° C. and 5% CO2. Cells treated with the compound vehicle DMSO are used as positive controls and cells treated with 10 μM Staurosporine serve as negative controls. At day 5-72h after compound addition—the CellTiter Glo Reagent is prepared according to the instructions of the kit (Promega Inc.): Reagent is mixed 1:1 with cell culture medium. Thereon, mixture and assay plates are equilibrated at room temperature for 20 min. Equal volumes of the reagent-medium-mixture is added to the volume of culture medium present in each well. The plates are mixed at […] for 2 minutes on an orbital shaker. The microplates are then incubated at room temperature for 10 minutes for stabilization of the luminescent signal. Following incubation the luminescence is recorded on a Victor microplate reader (Perkin Elmer) using a 200 ms integration time. The data is then analyzed with Excel using the XLFIT Plugin (dose response Fit 205) for IC50-determination. As quality control the Z′-factor is calculated from 16 positive and negative control values. […] Inhibition is indicated as IC50 [nM] (“-”=not measured).

Row | SMILES | IC50 [1] [nM] | IC50 [2] [nM] | IC50 [3] [nM] | IC50 [4] [nM]
1 | COC(C(=O)N[C@H]1CC(=O)N2CCCC(CCOc3ccc(C)c(c3)CNC(=O)[C@H](CCc3ccccc3)NC1=O)C2)c1ccc(NC(C)=O)cc1 (stereo partly drawn) [Compound 323, 2-(4-acetamidophenyl)-2-methoxy-N-((9S,12S)-5^4-methyl-8,11,14-trioxo-9-phenethyl-4-oxa-7,10-diaza-1(3,1)-piperidina-5(1,3)-benzenacyclotetradecaphane-12-yl)acetamide] | < 100 | < 100 | < 100 | < 100
2 | Cc1cc2cc(c1C)CNC(=O)[C@H](CCc1ccccc1)NC(=O)CCC(=O)N1CCCC(CCO2)C1 (stereo partly drawn) [Compound 95, (9S)-5^4,5^5-dimethyl-9-phenethyl-4-oxa-7,10-diaza-1(3,1)-piperidina-5(1,3)-benzenacyclotetradecaphane-8,11,14-trione] | < 100 | 1000 to 5000 | < 100 | 500 to 1000
3 | CC(=O)N[C@H]1CCC(=O)N2CCC2(C)COc2ccc(C)c(c2)CNC(=O)[C@H](CCc2ccccc2)NC1=O (stereo partly drawn) [Compound 265, N-((8S,11S)-1^2,4^4-dimethyl-7,10,14-trioxo-8-phenethyl-3-oxa-6,9-diaza-1(2,1)-azetidina-4(1,3)-benzenacyclotetradecaphane-11-yl)acetamide] | 100 to 500 | > 5000 | – | 100 to 500
4 | CC(=O)N[C@H]1CCCC(=O)NCCCCOc2ccc(C)c(c2)CNC(=O)[C@H](CCc2ccccc2)NC1=O [Compound 269, N-((12S,15S)-1^4-methyl-8,13,16-trioxo-15-phenethyl-2-oxa-7,14,17-triaza-1(1,3)-benzenacyclooctadecaphane-12-yl)acetamide] | < 100 | 1000 to 5000 | 1000 to 5000 | 1000 to 5000
5 | Cc1ccc2cc1CNC(=O)[C@H](CCc1ccccc1)NC(=O)[C@@H](NC(=O)c1cccc3cc(N)ncc13)CC(=O)N1CCCC(CCO2)C1 (stereo partly drawn) [Compound 319, 3-amino-N-((9S,12S)-5^4-methyl-8,11,14-trioxo-9-phenethyl-4-oxa-7,10-diaza-1(3,1)-piperidina-5(1,3)-benzenacyclotetradecaphane-12-yl)isoquinoline-8-carboxamide] | < 100 | – | < 100 | < 100

Second part, the compound after the results:

Row | IC50 [1] [nM] | IC50 [2] [nM] | IC50 [3] [nM] | IC50 [4] [nM] | SMILES
6 | < 100 | 100 to 500 | < 100 | < 100 | Cc1ccc2cc1CNC(=O)[C@H](CCc1ccccc1)NC(=O)[C@@H](NC(=O)Cc1nc(-c3ccccc3)n[nH]1)CC(=O)N1CCCC(CCO2)C1 (stereo partly drawn) [Compound 328, N-((9S,12S)-5^4-methyl-8,11,14-trioxo-9-phenethyl-4-oxa-7,10-diaza-1(3,1)-piperidina-5(1,3)-benzenacyclotetradecaphane-12-yl)-2-(3-phenyl-1H-1,2,4-triazol-5-yl)acetamide]
7 | < 100 | < 100 | < 100 | < 100 | Cc1ccc2cc1CNC(=O)[C@H](CCc1ccccc1)NC(=O)[C@@H](NC(=O)Cc1cn3ccsc3n1)CC(=O)N1CCCC(CCO2)C1 (stereo partly drawn) [Compound 330, 2-(imidazo[2,1-b]thiazol-6-yl)-N-((9S,12S)-5^4-methyl-8,11,14-trioxo-9-phenethyl-4-oxa-7,10-diaza-1(3,1)-piperidina-5(1,3)-benzenacyclotetradecaphane-12-yl)acetamide]
8 | < 100 | < 100 | < 100 | < 100 | Cc1ccc2cc1CNC(=O)[C@H](CCc1ccccc1)NC(=O)[C@@H](NC(=O)C(C)c1ccc3ncccc3c1)CC(=O)N1CCCC(CCO2)C1 (stereo partly drawn) [Compound 369, N-((9S,12S)-5^4-methyl-8,11,14-trioxo-9-phenethyl-4-oxa-7,10-diaza-1(3,1)-piperidina-5(1,3)-benzenacyclotetradecaphane-12-yl)-2-(quinolin-6-yl)propanamide]
9 | < 100 | < 100 | < 100 | < 100 | CCOC(C(=O)N[C@H]1CC(=O)N2CCCC(CCOc3ccc(C)c(c3)CNC(=O)[C@H](CCc3ccccc3)NC1=O)C2)c1ccc(NC(C)=O)cc1 (stereo partly drawn) [Compound 324, 2-(4-acetamidophenyl)-2-ethoxy-N-((9S,12S)-5^4-methyl-8,11,14-trioxo-9-phenethyl-4-oxa-7,10-diaza-1(3,1)-piperidina-5(1,3)-benzenacyclotetradecaphane-12-yl)acetamide]
10 | < 100 | < 100 | < 100 | < 100 | Cc1ccc2cc1CNC(=O)[C@H](CCc1ccccc1)NC(=O)[C@@H](NC(=O)OCc1ccccc1)CC(=O)N1CCC(CCO2)C1 (stereo partly drawn) [Compound 325, benzyl ((9S,12S)-5^4-methyl-8,11,14-trioxo-9-phenethyl-4-oxa-7,10-diaza-1(3,1)-pyrrolidina-5(1,3)-benzenacyclotetradecaphane-12-yl)carbamate]
11 | < 100 | < 100 | < 100 | < 100 | Cc1ccc2cc1CNC(=O)[C@H](CCc1ccccc1)NC(=O)[C@@H](NC(=O)Cc1ccccn1)CC(=O)N1CCCC(CCO2)C1 (stereo partly drawn) [Compound 331, N-((9S,12S)-5^4-methyl-8,11,14-trioxo-9-phenethyl-4-oxa-7,10-diaza-1(3,1)-piperidina-5(1,3)-benzenacyclotetradecaphane-12-yl)-2-(pyridin-2-yl)acetamide]
